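How tested: cells in 96-well plates exposed to compound for 48 hours at five concentrations. Here, GI50 denotes the concentration required for 50% inhibition of growth.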 Calls of active or inactive are those of the source. Cut-off read from the data, not from the text of the source: active = GI50 up to about 1.1 µM and inactive = higher.
How the values were obtained:
Assay in all cases: inhibition of tumour cell growth, NCI panel, 48 h
SR = system: SR
HCC 2998 = system: HCC 2998
MDA-N = system: MDA-N
LOX IMVI = system: LOX IMVI
RXF 393 = system: RXF 393
DU-145 = system: DU-145
NCI-H226 = system: NCI-H226
SW-620 = system: SW-620
TK-10 = system: TK-10
MOLT-4 = system: MOLT-4
M14 = system: M14
OVCAR-4 = system: OVCAR-4
SF-539 = system: SF-539
UACC-257 = system: UACC-257
T47D = system: T47D
COLO 205 = system: COLO 205
SF-295 = system: SF-295
SNB-75 = system: SNB-75
Hs-578T = system: Hs-578T

SMILES | GI50 (SR) | GI50 (HCC 2998) | GI50 (MDA-N) | GI50 (LOX IMVI) | GI50 (RXF 393) | GI50 (DU-145) | GI50 (NCI-H226) | GI50 (SW-620) | GI50 (TK-10) | GI50 (MOLT-4) | GI50 (M14) | GI50 (OVCAR-4) | GI50 (SF-539) | GI50 (UACC-257) | GI50 (T47D) | GI50 (COLO 205) | GI50 (SF-295) | GI50 (SNB-75) | GI50 (Hs-578T)
O=c1c(F)cn2c(=O)n1CCCCCCCn1c(=O)c(F)cn(c1=O)CCCCCCC2 | 39.4 µM (inactive) | > 100 µM (inactive) | > 100 µM (inactive) | > 100 µM (inactive) | 39.1 µM (inactive) | 1.59 µM (inactive) | 54.5 µM (inactive) | > 100 µM (inactive) | 90.2 µM (inactive) | > 100 µM (inactive) | 36.1 µM (inactive) | 30.1 µM (inactive) | 33.1 µM (inactive) | 36.4 µM (inactive) | > 100 µM (inactive) | > 100 µM (inactive) | > 100 µM (inactive) | 0.105 µM (active) | 
O=C(/C=C/c1cc(Cl)cc(Cl)c1O)c1cccc(O)c1 | 25.5 µM (inactive) | 85.3 µM (inactive) |  | 12.6 µM (inactive) | > 100 µM (inactive) |  | 16.1 µM (inactive) | 54.5 µM (inactive) | > 100 µM (inactive) | 20.4 µM (inactive) | 29.5 µM (inactive) | 40.2 µM (inactive) | 28.2 µM (inactive) | > 100 µM (inactive) |  | 18.6 µM (inactive) | 14.8 µM (inactive) | 36 µM (inactive) | 
C=CCOC(OCC=C)/C(Br)=C/C | > 100 µM (inactive) | 80.9 µM (inactive) | 37 µM (inactive) | 16.5 µM (inactive) | 29.2 µM (inactive) | 55.2 µM (inactive) | > 100 µM (inactive) | 37.5 µM (inactive) | > 100 µM (inactive) |  | 32.1 µM (inactive) | 24.5 µM (inactive) |  | > 100 µM (inactive) | 31.8 µM (inactive) | 19.2 µM (inactive) | > 100 µM (inactive) | > 100 µM (inactive) | 26.8 µM (inactive)
CC1(C)CC(=O)C2=C(C1)S/C(=C1/SC3=C(S1)C(=O)CC(C)(C)C3)S2 | > 251 µM (inactive) | > 251 µM (inactive) |  | > 251 µM (inactive) | > 251 µM (inactive) |  |  | > 251 µM (inactive) | > 251 µM (inactive) | > 251 µM (inactive) | > 251 µM (inactive) |  | > 251 µM (inactive) | > 251 µM (inactive) |  | > 251 µM (inactive) | > 251 µM (inactive) | > 251 µM (inactive) | 
CCOC(=O)[C@@H]1ON2O[C@H](OC3CCCC3(c3ccccc3)c3ccccc3)C[C@H]3OC(=O)[C@@H]1C32 (some centres undefined) | 33.7 µM (inactive) | 52.1 µM (inactive) | 43.3 µM (inactive) | 27.2 µM (inactive) | 11.1 µM (inactive) | 25.5 µM (inactive) | 36.4 µM (inactive) | 28.2 µM (inactive) | 81.3 µM (inactive) | 45 µM (inactive) | 45.3 µM (inactive) |  | 65 µM (inactive) | 52.4 µM (inactive) | 26.1 µM (inactive) | 40.6 µM (inactive) | > 100 µM (inactive) | 71.4 µM (inactive) | 49.4 µM (inactive)
OC(c1ccccc1)c1c(-c2ccccc2)oc(-c2ccccc2)c1C(O)c1ccccc1 (centres undefined) | 9.95 µM (inactive) | 16.8 µM (inactive) | 9.1 µM (inactive) | 11.1 µM (inactive) | 6.5 µM (inactive) | 13.7 µM (inactive) | 7.4 µM (inactive) | 14.7 µM (inactive) | 15.6 µM (inactive) | 5.06 µM (inactive) | 10 µM (inactive) | < 0.01 µM (active) | 16.7 µM (inactive) |  | 6.28 µM (inactive) | 5.87 µM (inactive) | 15.1 µM (inactive) |  | 13.5 µM (inactive)
COc1ccc(/C(=N\NC(=N)N)C(c2ccc(OC)cc2)C2OC(=O)c3ccccc32)cc1 (centres undefined) | > 100 µM (inactive) | > 100 µM (inactive) |  | > 100 µM (inactive) | > 100 µM (inactive) |  | > 100 µM (inactive) | > 100 µM (inactive) |  | > 100 µM (inactive) | > 100 µM (inactive) | > 100 µM (inactive) | > 100 µM (inactive) | > 100 µM (inactive) |  | > 100 µM (inactive) | > 100 µM (inactive) | 67.5 µM (inactive) | 
COc1cc(C=O)c(-c2cc3c(cc2C2(C)OCCS2)OCO3)c(OC)c1OC (centres undefined) | 14.1 µM (inactive) | 16.4 µM (inactive) |  | 9.12 µM (inactive) | 7.38 µM (inactive) |  | 6.32 µM (inactive) | 7.94 µM (inactive) | 57.8 µM (inactive) | 12.5 µM (inactive) | 5.73 µM (inactive) | 17.9 µM (inactive) | 5.85 µM (inactive) | 8.83 µM (inactive) |  | 4.24 µM (inactive) | 13.3 µM (inactive) | 7.89 µM (inactive) | 
COC(=O)/C=C/c1cc(OC)c(OC)c(OC)c1 | > 100 µM (inactive) | > 100 µM (inactive) |  | > 100 µM (inactive) | > 100 µM (inactive) |  | 46.1 µM (inactive) | > 100 µM (inactive) | > 100 µM (inactive) | > 100 µM (inactive) | > 100 µM (inactive) | > 100 µM (inactive) | > 100 µM (inactive) | > 100 µM (inactive) |  | > 100 µM (inactive) | > 100 µM (inactive) | 41.6 µM (inactive) | 
O=C(COc1ccc2c(=O)cc(-c3ccc(Cl)cc3)oc2c1)N1CCN(c2ccccc2)CC1 | > 100 µM (inactive) | > 100 µM (inactive) |  | > 100 µM (inactive) | > 100 µM (inactive) |  | > 100 µM (inactive) | > 100 µM (inactive) | > 100 µM (inactive) | 6.56 µM (inactive) | > 100 µM (inactive) | > 100 µM (inactive) | > 100 µM (inactive) | > 100 µM (inactive) |  | 4.37 µM (inactive) | > 100 µM (inactive) | > 100 µM (inactive) | 
O=C(/C=C/c1ccc(O)c(O)c1)OCc1ccccc1 [BENZYL CAFFEATE] | 3.74 µM (inactive) | 36.6 µM (inactive) | 4.4 µM (inactive) | 15.5 µM (inactive) | 16.8 µM (inactive) | 15.1 µM (inactive) | 31.3 µM (inactive) | 17.4 µM (inactive) | 15.4 µM (inactive) | 2.28 µM (inactive) | 11.1 µM (inactive) | 8.97 µM (inactive) | 7.06 µM (inactive) | 21.2 µM (inactive) | 12.1 µM (inactive) | 22.4 µM (inactive) | 11.2 µM (inactive) |  | 9.71 µM (inactive)
Nc1nc2ncn(CC(O)CO)c2c(=S)[nH]1 (centres undefined) | > 100 µM (inactive) |  |  | > 100 µM (inactive) | > 100 µM (inactive) |  | > 100 µM (inactive) | > 100 µM (inactive) | > 100 µM (inactive) |  | > 100 µM (inactive) | > 100 µM (inactive) | > 100 µM (inactive) | > 100 µM (inactive) |  | > 100 µM (inactive) | > 100 µM (inactive) | > 100 µM (inactive) | 
Cc1ccc(C2(O)CC(c3ccc([N+](=O)[O-])o3)=NN2C(=O)COc2ccc(Cl)cc2)cc1 (centres undefined) | 1.82 µM (inactive) | 6 µM (inactive) |  | 4.59 µM (inactive) |  |  | 17.1 µM (inactive) | 3.12 µM (inactive) | 15 µM (inactive) | 3.26 µM (inactive) | 4.93 µM (inactive) | 5.98 µM (inactive) | 10.2 µM (inactive) | 4.91 µM (inactive) |  | 3.62 µM (inactive) | 10.6 µM (inactive) | 13.6 µM (inactive) | 
COc1ccc(-n2c(=O)[nH]n(C(C)=O)c2=O)cc1 | > 100 µM (inactive) |  | > 100 µM (inactive) | > 100 µM (inactive) | > 100 µM (inactive) | > 100 µM (inactive) | > 100 µM (inactive) | > 100 µM (inactive) | > 100 µM (inactive) | > 100 µM (inactive) | > 100 µM (inactive) | > 100 µM (inactive) | > 100 µM (inactive) | > 100 µM (inactive) |  | > 100 µM (inactive) | > 100 µM (inactive) | > 100 µM (inactive) | > 100 µM (inactive)
CC1(C)C(=O)N(c2ccccc2)C(=O)N1c1nc2ccccc2[nH]1 | 78.7 µM (inactive) | > 100 µM (inactive) |  | 85.9 µM (inactive) | > 100 µM (inactive) |  | > 100 µM (inactive) | 17.4 µM (inactive) | > 100 µM (inactive) | 40.9 µM (inactive) | > 100 µM (inactive) |  |  | > 100 µM (inactive) |  | 49.7 µM (inactive) | > 100 µM (inactive) | > 100 µM (inactive) | 
O=C1N[C@@H](O)[C@@H]2ON=C(c3ccccc3)[C@H]12 | > 100 µM (inactive) | > 100 µM (inactive) |  | > 100 µM (inactive) | > 100 µM (inactive) |  | > 100 µM (inactive) | > 100 µM (inactive) | > 100 µM (inactive) | > 100 µM (inactive) | > 100 µM (inactive) | > 100 µM (inactive) | > 100 µM (inactive) | > 100 µM (inactive) |  | > 100 µM (inactive) | > 100 µM (inactive) | > 100 µM (inactive) | 
CN(C)C(=S)Nc1nnc(Nc2ccccc2)s1 | > 100 µM (inactive) | > 100 µM (inactive) |  | > 100 µM (inactive) | > 100 µM (inactive) |  | > 100 µM (inactive) | > 100 µM (inactive) |  | > 100 µM (inactive) | > 100 µM (inactive) | > 100 µM (inactive) | > 100 µM (inactive) | 59 µM (inactive) |  | > 100 µM (inactive) |  | > 100 µM (inactive) | 
COc1ccc(C2S/C(=C\c3ccc([N+](=O)[O-])cc3)C(=O)N2NC(=O)Cc2ccccc2)cc1 (centres undefined) | > 100 µM (inactive) |  |  | > 100 µM (inactive) | 25.6 µM (inactive) |  | > 100 µM (inactive) | > 100 µM (inactive) | > 100 µM (inactive) | 87.3 µM (inactive) | > 100 µM (inactive) | > 100 µM (inactive) | > 100 µM (inactive) | 87.5 µM (inactive) |  | > 100 µM (inactive) | > 100 µM (inactive) | 53.8 µM (inactive) | 
